In patent publication US10730863B2, “Bridged bicyclic compounds as farnesoid X receptor modulators” (BRISTOL-MYERS SQUIBB COMPANY, priority 2017, dated 2020):

These compounds were tested against FXR (Homo sapiens (Human), UniProt Q96RI1) (assay: FXR EC50 (FXR agonist activity reported with each example)).
Assay type: cell-based

Sequence of FXR (Q96RI1 262-486): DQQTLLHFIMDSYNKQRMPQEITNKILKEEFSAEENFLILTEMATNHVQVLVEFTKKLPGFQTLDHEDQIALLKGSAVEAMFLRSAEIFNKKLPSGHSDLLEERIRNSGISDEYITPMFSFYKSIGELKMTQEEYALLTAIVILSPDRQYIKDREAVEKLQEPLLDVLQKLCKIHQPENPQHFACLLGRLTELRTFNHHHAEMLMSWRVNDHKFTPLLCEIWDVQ

Row | Compound | EC50 [nM]
1 | CC(C)Oc1nc(C(=O)O)cc2ccc(OCC34CCC(OCc5c(-c6c(Cl)cncc6Cl)noc5C5CC5)(CC3)CC4)cc12 [Example 357, 7-((4-((5-cyclopropyl-3-(3,5-dichloropyridin-4-yl)isoxazol-4-yl)methoxy)bicyclo[2.2.2]octan-1-yl)methoxy)-1-isopropoxyisoquinoline-3-carboxylic acid] | 13
2 | O=C(O)c1cc(OCC23CCC(/C=C/c4c(-c5c(Cl)cncc5Cl)noc4C4CC4)(CC2)CC3)cc(C(F)(F)F)c1 [Example 506, (E)-3-((4-(2-(5-cyclopropyl-3-(3,5-dichloropyridin-4-yl)isoxazol-4-yl)vinyl)bicyclo[2.2.2]octan-1-yl)methoxy)-5-(trifluoromethyl)benzoic acid] | 6
3 | O=C(O)c1ccc(OCC23CCC(OCc4c(-c5c(Cl)cncc5Cl)noc4C4CC4)(CC2)CC3)c2ncccc12 [Example 302] | 54
4 | O=C(O)c1ccnc(-c2noc(C34CCC(OCc5c(-c6c(Cl)cccc6Cl)noc5C5CC5)(CC3)CC4)n2)c1 [Example 10, 2-(5-(4-((5-cyclopropyl-3-(2,6-dichlorophenyl)isoxazol-4-yl)methoxy)bicyclo[2.2.2]octan-1-yl)-1,2,4-oxadiazol-3-yl)isonicotinic acid] | 2700
5 | NC(=O)C12CCC(COCc3c(-c4c(Cl)cccc4Cl)noc3C3CC3)(CC1)CC2 [Intermediate 162C, 4-(((5-cyclopropyl-3-(2,6-dichlorophenyl)isoxazol-4-yl)methoxy)methyl)bicyclo[2.2.2]octane-1-carboxamide] | 180
6 | O=C(O)c1cc(C(F)(F)F)cc(C23CCC(/C=C/c4c(-c5c(Cl)cncc5Cl)noc4C4CC4)(CC2)CO3)c1 [Example 491, (E)-3-(4-(2-(5-cyclopropyl-3-(3,5-dichloropyridin-4-yl)isoxazol-4-yl)vinyl)-2-oxabicyclo[2.2.2]octan-1-yl)-5-(trifluoromethyl)benzoic acid] | 26
7 | O=C(O)c1ccc(OC2COC2)c2nc(C34CCC(OCc5c(-c6c(Cl)cncc6Cl)noc5C5CC5)(CC3)CC4)ccc12 [Example 406] | 54
8 | COc1ccc(-c2noc(C34CCC(/C=C/c5c(-c6c(Cl)cncc6Cl)noc5C5CC5)(CC3)CC4)n2)cc1C(=O)NS(C)(=O)=O [Example 438, (E)-5-(5-(4-(2-(5-cyclopropyl-3-(3,5-dichloropyridin-4-yl)isoxazol-4-yl)vinyl)bicyclo[2.2.2]octan-1-yl)-1,2,4-oxadiazol-3-yl)-2-methoxy-N-(methylsulfonyl)benzamide] | 33
9 | O=C(O)c1cccc(-c2noc(C34CCC(OCc5c(-c6ccccc6C(F)(F)F)noc5C5CC5)(CC3)CC4)n2)c1 [Example 25] | 300
10 | NC(=O)c1cc(C(F)(F)F)cc2nc(C34CCC(OCc5c(-c6c(Cl)cncc6Cl)noc5C5CC5)(CC3)CC4)sc12 [Example 435, 2-(4-((5-cyclopropyl-3-(3,5-dichloropyridin-4-yl)isoxazol-4-yl)methoxy)bicyclo[2.2.2]octan-1-yl)-5-(trifluoromethyl)benzo[d]thiazole-7-carboxamide] | 460
11 | O=C(O)c1cnc2ccc(OCC34CCC(OCc5c(-c6c(Cl)cncc6Cl)noc5C5CC5)(CC3)CC4)nn12 [Example 466, 6-((4-((5-cyclopropyl-3-(3,5-dichloropyridin-4-yl)isoxazol-4-yl)methoxy)bicyclo[2.2.2]octan-1-yl)methoxy)imidazo[1,2-b]pyridazine-3-carboxylic acid] | 390
12 | O=C(O)c1ccc2nc(OCC34CCC(OCc5c(-c6c(Cl)cncc6Cl)noc5C5CC5)(CC3)CC4)ccc2n1 [Example 298, 6-((4-((5-cyclopropyl-3-(3,5-dichloropyridin-4-yl)isoxazol-4-yl)methoxy)bicyclo[2.2.2]octan-1-yl)methoxy)-1,5-naphthyridine-2-carboxylic acid] | 63
13 | O=C(O)c1cc(C(F)(F)F)c2cc(OCC34CCC(/C=C/c5c(-c6c(Cl)cncc6Cl)noc5C5CC5)(CC3)CC4)ccc2n1 [Example 452, (E)-6-((4-(2-(5-cyclopropyl-3-(3,5-dichloropyridin-4-yl)isoxazol-4-yl)vinyl)bicyclo[2.2.2]octan-1-yl)methoxy)-4-(trifluoromethyl)quinoline-2-carboxylic acid] | 14
14 | O=C(O)c1ccc(-c2noc(C34CCC(COCc5c(-c6c(Cl)cccc6Cl)noc5C5CC5)(CC3)CC4)n2)cc1 [Example 152] | 140
15 | O=C(O)c1cncc(OCC23CCC(OCc4c(-c5c(Cl)cccc5Cl)noc4C4CC4)(CC2)CC3)c1 [Example 109, 5-((4-((5-cyclopropyl-3-(2,6-dichlorophenyl)isoxazol-4-yl)methoxy)bicyclo[2.2.2]octan-1-yl)methoxy)nicotinic acid] | 150
16 | N#Cc1cnc2ccc(OCC34CCC(OCc5c(-c6c(Cl)cncc6Cl)noc5C5CC5)(CC3)CC4)nn12 [Example 462, 6-((4-((5-cyclopropyl-3-(3,5-dichloropyridin-4-yl)isoxazol-4-yl)methoxy)bicyclo[2.2.2]octan-1-yl)methoxy)imidazo[1,2-b]pyridazine-3-carbonitrile] | 220
17 | O=C(O)c1cccc(-c2noc(C34CCC(OCc5c(-c6c(Cl)cncc6Cl)noc5C5CC5)(CC3)CC4)n2)c1F [Example 71, 3-(5-(4-((5-Cyclopropyl-3-(3,5-dichloropyridin-4-yl)isoxazol-4-yl)methoxy)bicyclo[2.2.2]octan-1-yl)-1,2,4-oxadiazol-3-yl)-2-fluorobenzoic acid] | 69

Row | Compound | EC50 [nM]
18 | Clc1cccc(Cl)c1-c1noc(C2CC2)c1COC12CCC(c3nc(-c4nn[nH]n4)no3)(CC1)CC2 [Example 267, 5-(4-((5-cyclopropyl-3-(2,6-dichlorophenyl)isoxazol-4-yl)methoxy)bicyclo[2.2.2]octan-1-yl)-3-(2H-tetrazol-5-yl)-1,2,4-oxadiazole] | 4400
19 | O=C(O)c1cc(OC2CCC2)c2cc(OCC34CCC(OCc5c(-c6c(Cl)cncc6Cl)noc5C5CC5)(CC3)CC4)cc(F)c2n1 [Example 308, 4-cyclobutoxy-6-((4-((5-cyclopropyl-3-(3,5-dichloropyridin-4-yl)isoxazol-4-yl)methoxy)bicyclo[2.2.2]octan-1-yl)methoxy)-8-fluoroquinoline-2-carboxylic acid] | 12
20 | O=C(O)c1cccc(OCC23CCC(OCc4c(-c5c(Cl)cncc5Cl)noc4C4CC4)(CC2)CC3)c1 [Example 91, 3-((4-((5-cyclopropyl-3-(3,5-dichloropyridin-4-yl)isoxazol-4-yl)methoxy)bicyclo[2.2.2]octan-1-yl)methoxy) benzoic acid] | 33
21 | Cn1nc(OCC23CCC(OCc4c(-c5c(Cl)cncc5Cl)noc4C4CC4)(CC2)CC3)cc1C(=O)O [Example 315] | 340
22 | COc1cc(C#CC23CCC(OCc4c(-c5c(Cl)cncc5Cl)noc4C4CC4)(CC2)CC3)nc(C(=O)O)c1 [Example 377] | 390
23 | COc1cncc(Cl)c1-c1noc(C2CC2)c1COC12CCC(COc3ccc(C)c(C(=O)O)n3)(CC1)CC2 [Example 120, 6-((4-((3-(3-chloro-5-methoxypyridin-4-yl)-5-cyclopropylisoxazol-4-yl)methoxy)bicyclo[2.2.2]octan-1-yl)methoxy)-3-methylpicolinic acid] | 2300
24 | O=C(O)c1cccc(-c2noc(C34C5C6C3C3C4C5C63COCc3c(-c4c(Cl)cccc4Cl)noc3C3CC3)n2)c1 (stereo not drawn) [Example 513, 3-(5-(4-(((5-cyclopropyl-3-(2,6-dichlorophenyl)isoxazol-4-yl)methoxy)methyl)cuban-1-yl)-1,2,4-oxadiazol-3-yl)benzoic acid] | 960
25 | COc1cncc(Cl)c1-c1noc(C2CC2)c1COC12CCC(COc3cc(OC)c4cc(C(=O)O)ccc4n3)(CC1)CC2 [Example 350, 2-((4-((3-(3-chloro-5-methoxypyridin-4-yl)-5-cyclopropylisoxazol-4-yl)methoxy)bicyclo[2.2.2]octan-1-yl)methoxy)-4-methoxyquinoline-6-carboxylic acid] | 890
26 | O=C(O)c1cc(F)c2nc(C34CCC(OCc5c(-c6ccccc6C(F)(F)F)noc5C5CC5)(CC3)CC4)sc2c1 [Example 51] | 500
27 | O=C(O)c1csc(OCC23CCC(COCc4c(-c5c(Cl)cccc5Cl)noc4C4CC4)(CC2)CC3)n1 [Example 176, 2-((4-(((5-cyclopropyl-3-(2,6-dichlorophenyl)isoxazol-4-yl)methoxy)methyl)bicyclo[2.2.2]octan-1-yl)methoxy)thiazole-4-carboxylic acid] | 740
28 | O=C(O)c1ccc2nc(C(O)C34CCC(OCc5c(-c6c(Cl)cccc6Cl)noc5C5CC5)(CC3)CC4)sc2c1 (stereo not drawn) [Example 124, 2-((4-((5-cyclopropyl-3-(2,6-dichlorophenyl)isoxazol-4-yl)methoxy)bicyclo[2.2.2]octan-1-yl)(hydroxy)methyl)benzo[d]thiazole-6-carboxylic acid] | 490
29 | O=C(O)c1cccc2nc(C34CCC(OCc5c(-c6c(Cl)cccc6Cl)noc5C5CC5)(CC3)CO4)sc12 [Example 454, 2-(4-((5-cyclopropyl-3-(2,6-dichlorophenyl)isoxazol-4-yl)methoxy)-2-oxabicyclo[2.2.2]octan-1-yl)benzo[d]thiazole-7-carboxylic acid] | 680
30 | CCOc1cc(C(=O)O)nc2c(F)cc(OCC34CCC(OCc5c(-c6c(Cl)cncc6Cl)noc5C5CC5)(CC3)CC4)cc12 [Example 306, 6-((4-((5-cyclopropyl-3-(3,5-dichloropyridin-4-yl)isoxazol-4-yl)methoxy)bicyclo[2.2.2]octan-1-yl)methoxy)-4-ethoxy-8-fluoroquinoline-2-carboxylic acid] | 11
31 | O=C(O)c1cccc(OCC23CCC(OCc4c(-c5ccccc5OC(F)(F)F)noc4C4CC4)(CC2)CC3)c1 [Example 77] | 180
32 | O=C(O)c1ccc2c(c1)CCN(C(=O)C13CCC(OCc4c(-c5c(Cl)cccc5Cl)noc4C4CC4)(CC1)CC3)C2 [Example 140, 2-(4-((5-cyclopropyl-3-(2,6-dichlorophenyl)isoxazol-4-yl)methoxy)bicyclo[2.2.2]octane-1-carbonyl)-1,2,3,4-tetrahydroisoquinoline-6-carboxylic acid] | 1700
33 | COC(=O)c1ccc(-c2noc(C34CCC(COCc5c(-c6c(Cl)cccc6Cl)noc5C5CC5)(CC3)CC4)n2)cc1 [Example 156] | 1700
